Key:
MYT1 protein [1] = target: T1, MYT1 protein (Homo sapiens (Human), UniProt Q99640); assay: Test for binding to ATP binding site of MYT1 (Kinase Tracer 178 / Eu-Anti-GST antibody TR-FRET); details: ATP binding site of MYT1, 30 minutes at room temperature
LU65 = assay: Cytotoxicity test with pemetrexed upon addition of each example compound (CellTiter-Glo); type: cell-based, human; details: combination with pemetrexed, LU65 cells, 7 days; maximum value, at the MYT1 inhibitor and pemetrexed concentrations
Protocol: LU65 (received from human tissue bank (JCRB Cell Bank)) was used in the evaluation of the present invention. LU65 is a lung cancer cell line having a truncated deletion mutation of S82* in RB1 gene (see Nature. 2019 May; 569(7757): 503-508. (Non Patent Literature 22)), in which the function of RB1 is decreased. The cell culture was carried out using RPMI-1640 (manufactured by SIGMA) containing 10% FBS (manufactured by SIGMA).
Each pemetrexed (manufactured by Tokyo Kasei Kogyo Co., Ltd.) and each example compound of each concentration were diluted using a DMSO solution, and 0.04 μL of each of series of dilution and DMSO was added to each well of cell culture plate using Echo 555 Liquid Handler (manufactured by Beckman Coulter Inc.). 1000 LU65 cells ([…]) were added to each well, which was cultured at 37° C. in a 5% CO2 incubator for 7 days. Intracellular ATP level which is a cell survival marker was measured and used in the monitoring of cell number. After culturing, 20 μL of CellTiter-Glo (registered trademark) 2.0 (manufactured by Promega) was added to each well, and the emission intensity was measured using Multimode Plate Reader En Vision (registered trademark) Xcite (manufactured by PerkinElmer). The cell survival rate under each condition was calculated by setting the value obtained by subtracting the luminescence of the cell unseeded well from the luminescence of the DMSO-added well as 100%, and calculating the proportion of a value obtained by subtracting the luminescence of the cell unseeded well from the luminescence detected at each well.
In addition, the cytotoxic activity under each condition was calculated by subtracting the survival rate in a combination of pemetrexed of each treatment concentration and each example compound of each treatment concentration, from 100%.

MYT1 protein [2] = target: T1, MYT1 protein; assay: MYT1 kinase activity inhibition test (ELISA, phosphorylation of Y15 of CDK1); type: biochemical; details: phosphorylation level of Y15 of CDK1 protein caused by MYT1 protein, 60 minutes
Protocol: The MYT1 kinase activity inhibitory capacity of each compound was evaluated by evaluating the phosphorylation level of Y15 of CDK1 protein caused by MYT1 protein, by ELISA. The kit of CycLex Weel Kinase Assay/Inhibitor Screening Kit Ver. 3 (manufactured by MBL, CY-1172V3) was used. Using Kinase Buffer, 10 μL of 5 nM MYT1 protein (manufactured by Carna Biosciences, Inc.) was prepared. In addition, 30 μL of 83.3 μM of ATP was prepared using Kinase Buffer. In addition, 10 μL of each compound was diluted to each concentration using Kinase Buffer. 30 μL of ATP was added to the plate of the kit, and thereafter, 10 μL of each compound was added thereto. Further, 10 μL of the diluted MYT1 protein solution was added thereto, and then the mixture was mixed, which was allowed to stand at room temperature for 60 minutes. The reaction solution was removed from each well, and each well was washed using Wash Buffer. After Wash Buffer was removed, 100 μL of HRP conjugated Anti-phospho-tyrosine antibody was added to each well, which was allowed to stand at room temperature for 60 minutes. Thereafter, the reaction solution was removed from each well, and each well was washed using Wash Buffer. After Wash Buffer was removed, 100 μL of Substrate Reagent was added to each well, which was allowed to stand at room temperature for 8 minutes. Thereafter, 100 μL of Stop Solution (1 N sulfuric acid) was added to each well according to the manual. Absorbances at 450 nm and 590 nm were measured using Envision (manufactured by PerkinElmer). The phosphorylation level of CDK1 protein was evaluated for each well by subtracting the absorbance at 590 nm from the absorbance at 450 nm. The inhibition rate of each compound added at each concentration was calculated by setting the signal when the compound was not added as 100% and the signal when MYT1 protein was not added as 0%, and the calculation results of IC50 were shown in Table 4.

T1 sequence (Q99640 whole entry): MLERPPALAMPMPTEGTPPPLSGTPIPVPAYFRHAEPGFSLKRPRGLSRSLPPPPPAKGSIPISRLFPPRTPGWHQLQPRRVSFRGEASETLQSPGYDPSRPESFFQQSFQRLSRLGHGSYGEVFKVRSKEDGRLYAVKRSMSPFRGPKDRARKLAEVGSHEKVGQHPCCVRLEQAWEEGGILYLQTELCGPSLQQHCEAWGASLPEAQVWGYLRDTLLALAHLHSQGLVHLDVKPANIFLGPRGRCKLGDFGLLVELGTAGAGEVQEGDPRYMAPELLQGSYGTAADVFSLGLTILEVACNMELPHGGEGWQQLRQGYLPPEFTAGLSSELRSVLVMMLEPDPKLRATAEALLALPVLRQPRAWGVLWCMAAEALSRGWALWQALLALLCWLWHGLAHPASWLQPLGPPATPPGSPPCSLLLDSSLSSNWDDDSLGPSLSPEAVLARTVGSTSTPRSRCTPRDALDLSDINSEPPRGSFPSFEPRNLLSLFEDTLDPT

| SMILES | IC50 (MYT1 protein [1]) | Bliss Score (Max) (LU65) | HSA Score (MAX) (LU65) | IC50 (MYT1 protein [2]) |
| --- | --- | --- | --- | --- |
| N#C[C@H]1C[C@H](Oc2cc3c(-c4ccc(Cl)c5[nH]ncc45)c(N)c(=O)[nH]c3cc2Cl)C1 [Compound A12, (1r,3r)-3-[[3-Amino-7-chloro-4-(7-chloro-1H-indazol-4-yl)-2-oxo-1H-quinolin-6-yl]oxy]cyclobutane-1-carbonitrile] | 2.6 nM | 61% | 70% | – |
| Nc1c(-c2ccc(Cl)c3[nH]ncc23)c2cc(Cl)c(Br)cc2[nH]c1=O [Compound A27, 3-Amino-7-bromo-6-chloro-4-(7-chloro-1H-indazol-4-yl)-1H-quinolin-2-one] | 40 nM | – | – | 0.52 nM |
| Nc1c(-c2ccc(Cl)c3[nH]ncc23)c2cc(Cl)c(OC(F)F)cc2[nH]c1=O [Compound A30, 3-Amino-6-chloro-4-(7-chloro-1H-indazol-4-yl)-7-(difluoromethoxy)-1H-quinolin-2-one] | 43 nM | – | – | 0.71 nM |
| Nc1c(-c2cc(F)cc3[nH]ncc23)c2cc(Cl)ccc2[nH]c1=O [Compound A56, 3-Amino-6-chloro-4-(6-fluoro-1H-indazol-4-yl)-1H-quinolin-2-one] | 58 nM | – | – | 1.1 nM |
| Nc1c(-c2ccc(F)c3[nH]ncc23)c2cc(Cl)ccc2[nH]c1=O [Compound A57, 3-Amino-6-chloro-4-(7-fluoro-1H-indazol-4-yl)-1H-quinolin-2-one] | 13 nM | – | – | 0.61 nM |
| Cc1ccc(-c2c(N)c(=O)[nH]c3ccc(Cl)cc23)c2cn[nH]c12 [Compound A60, 3-Amino-6-chloro-4-(7-methyl-1H-indazol-4-yl)-1H-quinolin-2-one] | 7 nM | – | – | 0.55 nM |
| Nc1c(-c2ccc(C(F)(F)F)c3[nH]ncc23)c2cc(Cl)ccc2[nH]c1=O [Compound A61, 3-Amino-6-chloro-4-[7-(trifluoromethyl)-1H-indazol-4-yl]-1H-quinolin-2-one] | 140 nM | – | – | 5 nM |
| Nc1c(-c2cccc(O)c2)c2ccc3ccccc3c2[nH]c1=O [Compound B2, 3-Amino-4-(3-hydroxyphenyl)-1H-benzo[h]quinolin-2-one] | 22 nM | – | – | 4 nM |
| N#Cc1cc2c(-c3cccc(O)c3)c(N)c(=O)[nH]c2c2ccccc12 [Compound B7, 3-Amino-4-(3-hydroxyphenyl)-2-oxo-1H-benzo[h]quinoline-6-carbonitrile] | 6 nM | – | – | 5.7 nM |
| N#Cc1cc2c(-c3ccc(F)c4[nH]ncc34)c(N)c(=O)[nH]c2c2ccccc12 [Compound B26, 3-Amino-4-(7-fluoro-1H-indazol-4-yl)-2-oxo-1H-benzo[h]quinoline-6-carbonitrile] | 10 nM | – | – | 0.37 nM |
| Cc1cc2c(-c3ccc(F)c4[nH]ncc34)c(N)c(=O)[nH]c2c2ccccc12 [Compound B27, 3-Amino-4-(7-fluoro-1H-indazol-4-yl)-6-methyl-1H-benzo[h]quinolin-2-one] | 7.3 nM | – | – | 0.21 nM |
| COc1cc2c(-c3ccc(F)c4[nH]ncc34)c(N)c(=O)[nH]c2c2cc(F)cnc12 [Compound F2, 3-Amino-9-fluoro-4-(7-fluoro-1H-indazol-4-yl)-6-methoxy-1H-1,7-phenanthrolin-2-one] | 1.6 nM | 86% | 83% | – |
| Nc1c(-c2ccc(F)c3[nH]ncc23)c2cc(C3CC3)c3cnsc3c2[nH]c1=O [Compound H3, 7-Amino-4-cyclopropyl-6-(7-fluoro-1H-indazol-4-yl)-9H-[1,2]thiazolo[4,5-h]quinolin-8-one] | 2.7 nM | 61% | 61% | – |
| Cc1nc2c(C)cc3c(-c4ccc(F)c5[nH]ncc45)c(N)c(=O)[nH]c3c2s1 [Compound K4, 7-Amino-6-(7-fluoro-1H-indazol-4-yl)-2,4-dimethyl-9H-[1,3]thiazolo[4,5-h]quinolin-8-one] | 2.7 nM | 56% | 66% | – |
| Nc1c(-c2ccc(F)c3[nH]ncc23)c2cc(C3CC3)c3ccsc3c2[nH]c1=O [Compound L3, 7-Amino-4-cyclopropyl-6-(7-fluoro-1H-indazol-4-yl)-9H-thieno[3,2-h]quinolin-8-one] | 2.3 nM | 51% | 61% | – |
| Cn1cnc2c3[nH]c(=O)c(N)c(-c4ccc(F)c5[nH]ncc45)c3cc(C3CC3)c21 [Compound M4, 7-Amino-4-cyclopropyl-6-(7-fluoro-1H-indazol-4-yl)-3-methyl-9H-imidazo[4,5-h]quinolin-8-one] | 19 nM | 51% | 60% | – |
| Nc1c(-c2ccc(F)c3[nH]ncc23)c2cc(C3CC3)c3scnc3c2[nH]c1=O [Compound N2, 7-Amino-4-cyclopropyl-6-(7-fluoro-1H-indazol-4-yl)-9H-[1,3]thiazolo[5,4-h]quinolin-8-one] | 3.3 nM | 50% | 57% | – |
| Cc1nc2c(-c3ccc(F)c4[nH]ncc34)c(N)c(=O)[nH]c2c2cccnc12 [Compound O1, 3-Amino-4-(7-fluoro-1H-indazol-4-yl)-6-methyl-1H-pyrido[2,3-h][1,5]naphthyridin-2-one] | 1.1 nM | 37% | 44% | – |
| Nc1c(-c2ccc(F)c3[nH]ncc23)c2cnc3ccccc3c2[nH]c1=O [Compound R1, 3-Amino-4-(7-fluoro-1H-indazol-4-yl)-1H-benzo[h][1,6]naphthyridin-2-one] | 3.4 nM | – | – | – |
| Cc1cc2c(nn1)c(Br)cc1c(-c3ccc(F)c4[nH]ncc34)c(N)c(=O)[nH]c12 [Compound S1, 3-Amino-6-bromo-4-(7-fluoro-1H-indazol-4-yl)-9-methyl-1H-pyrido[2,3-f]cinnolin-2-one] | 370 nM | – | – | – |
| COc1ccc2c(n1)c(OC)cc1c(-c3ccc(F)c4[nH]ncc34)c(N)c(=O)[nH]c12 [Compound T1, 3-Amino-4-(7-fluoro-1H-indazol-4-yl)-6,8-dimethoxy-1H-1,7-phenanthrolin-2-one] | 4.9 nM | – | – | – |
| COc1ccc2c(n1)c(OC(C)C)cc1c(-c3ccc(F)c4[nH]ncc34)c(N)c(=O)[nH]c12 [Compound T2, 3-Amino-4-(7-fluoro-1H-indazol-4-yl)-8-methoxy-6-propan-2-yloxy-1H-1,7-phenanthrolin-2-one] | 7.6 nM | – | – | – |
| CCOc1cc2c(-c3ccc(F)c4[nH]ncc34)c(N)c(=O)[nH]c2c2ccc(OC)nc12 [Compound T3, 3-Amino-6-ethoxy-4-(7-fluoro-1H-indazol-4-yl)-8-methoxy-1H-1,7-phenanthrolin-2-one] | 6.1 nM | – | – | – |
| COc1cc2c(-c3ccc(F)c4[nH]ncc34)c(N)c(=O)[nH]c2c2ccc(=O)[nH]c12 [Compound T4, 3-Amino-4-(7-fluoro-1H-indazol-4-yl)-6-methoxy-1,7-dihydro-1,7-phenanthroline-2,8-dione] | 3.2 nM | – | – | – |
| CC(C)Oc1cc2c(-c3ccc(F)c4[nH]ncc34)c(N)c(=O)[nH]c2c2ccc(=O)[nH]c12 [Compound T5, 3-Amino-4-(7-fluoro-1H-indazol-4-yl)-6-propan-2-yloxy-1,7-dihydro-1,7-phenanthroline-2,8-dione] | 3.5 nM | – | – | – |
| CCOc1cc2c(-c3ccc(F)c4[nH]ncc34)c(N)c(=O)[nH]c2c2ccc(=O)[nH]c12 [Compound T6, 3-Amino-6-ethoxy-4-(7-fluoro-1H-indazol-4-yl)-1,7-dihydro-1,7-phenanthroline-2,8-dione] | 2.2 nM | – | – | – |

— patent US20260062412A1, “NITROGEN-CONTAINING HETEROCYCLIC COMPOUND HAVING MYT1 INHIBITORY ACTIVITY” (CHUGAI SEIYAKU KABUSHIKI KAISHA, priority 2023, published 2026)
